Assay results reported in the NIST ThermoML archive (doi:10.1016/j.fluid.2018.11.010).

Assay: wn = mass fraction of the nth substance listed
Details: 298.15 K, Wilhelmy plate method

CC(=O)[O-].CCCCCCn1cc[n+](C)c1 [3-hexyl-1-methylimidazolium acetate] + O
surface tension liquid-gas (w1 = 7e-05): 66.55 mN/m
surface tension liquid-gas (w1 = 0.00069): 60.77 mN/m
surface tension liquid-gas (w1 = 0.01013): 51.97 mN/m
surface tension liquid-gas (w1 = 0.3005): 41 mN/m
surface tension liquid-gas (w1 = 1): 36 mN/m
